Here are results for three compounds from patent publication US20240092739A1, “COMPOUNDS AND METHODS OF USE” (Ferro Therapeutics, Inc, priority 2020, published 2024).

What all share (type): cell-based
In experiment [1] the test system is 786-O (renal cell carcinoma) cells. Briefly: Cell proliferation (Alamar Blue) assay, 786-O cells. As to conditions: Homo sapiens, 786-0; 786-O cells, 24 h compound treatment, Alamar Blue; read-out: IC50 (μM) 786-O. The essentials:
(§1)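 Cells seeded at 5000/well, incubated 16–24 h, then treated 24 h at 37°C with 10–0.0005 μM compound (3-fold dilutions, 1% DMSO). Alamar Blue added for 1.5 h, fluorescence read at 540/590 nm; IC50 from variable-slope sigmoidal fit.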
A general note: Resazurin is reduced to fluorescent resorufin, in cell work by metabolically active cells.

The subject of a further experiment is A431 cells. In words: Cell proliferation (Alamar Blue) assay, A431 cells. The note with it: Homo sapiens, A-431; A431 cells, 24 h compound treatment, Alamar Blue; read-out: IC50 (μM) A431. The essentials: as §1
For experiment [2], the system named is SJSA-1 (osteosarcoma) cells. Briefly: Cell proliferation (Alamar Blue) assay, SJSA-1 cells. The note with it: Homo sapiens, 24 h compound treatment. The protocol:
Cell viability assay was performed to assess the potency of the compounds in human cancer cell lines 786-0 (renal cell carcinoma) and SJSA-1 (osteosarcoma). Additional cell lines, such as pancreatic cancer cell lines (Panc 02.13, BxPC-3, Panc 12, Panc 02.03, Panc 6.03, PSN-1, HPAC, and Capan-1), prostate cancer cell lines (PC-3, DU145, […], NCI-H660, 1PH1 LNCaP, BM-1604, and MDA PCa 2b), etc., can be tested in a similar method.
Cells (SJSA-1, 786-0 and A431) were seeded (5000 cells/100 μL/well) in 96-well tissue culture plate and incubated at 37° C./500 CO2 for 16-24 hours. The cells were then treated with compounds (25 μL of 5×). The compound concentrations were 10-0.0005 μM prepared in 3-fold serial dilutions with final DMSO concentration of 1%. The plates were then incubated for 24 h at 37° C./[…] in a moist environment. Then Alamar Blue™ reagent (final concentration 1×-12.5 μL) was added to each well and incubated for 1.5 hours at 37° C./500 CO2. The plates were read on fluorescence reader at 540 nm excitation and 590 nm emission wavelengths. The IC50 values were subsequently determined using a sigmoidal dose-response curve (variable slope) in GraphPad Prism® 5 software. Tables A-3 and B-11 show cell proliferation data for exemplary compounds as described herein.

`C#CC(=O)N1[C@@H](CCCC)Cc2cc(OC)ccc2[C@H]1c1ccc(NC(=O)C2CCC2)cc1` [Compound B-19, N-(4-((1R,3S)-3-butyl-6-methoxy-2-propioloyl-1,2,3,4-tetrahydroisoquinolin-1-yl)phenyl) cyclobutane carboxamide]: the figures for the IC50 (in experiment [1]; with A431 cells; in experiment [2]) were 0.569 µM, 6.3 µM and 0.52 µM, respectively.
With `C#CC(=O)N1[C@@H](CCCC)Cc2cc(OC)ccc2[C@@H]1c1ccc(NC(=O)C2CCC2)cc1` [Compound B-20, N-{4-[(1S,3S)-3-butyl-6-methoxy-2-(prop-2-ynoyl)-1,2,3,4-tetrahydroisoquinolin-1-yl]phenyl}cyclobutanecarboxamide], the IC50 in experiment [1] came to 0.02 µM; with A431 cells it was 6.14 µM; in experiment [2], 0.021 µM.
For `C#CC(=O)N1[C@@H](CCCC)Cc2cc(OC)ccc2[C@@H]1c1ccc(NC2CCC2)cc1` [Compound B-22, 1-((1S,3S)-3-butyl-1-(4-(cyclobutylamino)phenyl)-6-methoxy-3,4-dihydroisoquinolin-2(1H)-yl)prop-2-yn-1-one], in that order: 0.041 µM, 9.96 µM and 0.05 µM.

The IC50 is the concentration needed to halve the response being measured.
